Measurements published in patent US9107413B2, “Pesticidal compositions and processes related thereto” (priority 2011, dated 2015).
Like-named read-outs stand apart in the source and are kept apart here.

Key:
Assay type in all cases: in vivo
CEW (Helicoverpa zea) = test: Bioassay on corn earworm (CEW), 128-well diet tray assay; conditions: 168 h, read-out: % Mortality CEW 50 μg/cm^2
Protocol: (§1) Certain molecules disclosed in this document were tested against BAW and CEW using procedures described in the following examples. In the reporting of the results, the “BAW & CEW Rating Table” was used (See Table Section).
Bioassays on CEW (Helicoverpa zea)
Bioassays on CEW were conducted using a 128-well diet tray assay. […] Trays were covered with a clear self-adhesive cover and held at 25° C., 14:10 light-dark for five to seven days. Percent mortality was recorded for the larvae in each well; activity in the eight wells was then averaged. The results are indicated in the table entitled “Table 5: Biological Results” (See Table Section).

BAW (Spodoptera exigua) = test: Bioassay on beet armyworm (BAW), 128-well diet tray assay; conditions: 168 h, read-out: % Mortality BAW 50 μg/cm^2
Protocol: as §1
Bioassays on BAW (Spodoptera exigua)
Bioassays on BAW were conducted using a 128-well diet tray assay. […] Trays were covered with a clear self-adhesive cover and held at 25° C., 14:10 light-dark for five to seven days. Percent mortality was recorded for the larvae in each well; activity in the eight wells was then averaged. The results are indicated in the table entitled “Table 5: Biological Results” (See Table Section).

GPA (Myzus persicae) = test: Bioassay on green peach aphid (GPA), foliar spray on cabbage seedlings; conditions: 72 h, read-out: % Mortality GPA 200 ppm
Protocol: Certain molecules disclosed in this document were tested against GPA using procedures described in the following example. In the reporting of the results, the “GPA Rating Table” was used (See Table Section).
Cabbage seedlings grown in 3-inch pots, with 2-3 small (3-5 cm) true leaves, were used as test substrate. The seedlings were infested with 20-50 GPA (wingless adult and nymph stages) one day prior to chemical application. Four pots with individual seedlings were used for each treatment. Test compounds (2 mg) were dissolved in 2 mL of acetone/methanol (1:1) solvent, forming stock solutions of 1000 ppm test compound. […] A hand-held aspirator-type sprayer was used for spraying a solution to both sides of […] leaves until runoff. Reference plants (solvent check) were sprayed with the diluent only containing 20% by volume of acetone/methanol (1:1) solvent. Treated plants were held in a holding room for three days at approximately 25° C. and ambient relative humidity (RH) prior to grading. Evaluation was conducted by counting the number of live aphids per plant under a microscope. […] Corrected % Control=100*(X−Y)/X • where • X=No. of live aphids on solvent check plants and • Y=No. of live aphids on treated plants
The results are indicated in the table entitled “Table 5: Biological Results” (See Table Section).

[1] = 50 μg/cm^2 on artificial diet, second instar larvae, five to seven days, 25° C.
[2] = 200 ppm foliar spray on cabbage seedlings, three days, Abbott corrected % control

Structure (SMILES)	mortality at 50 µg/cm2 (CEW (Helicoverpa zea)) [%]	mortality at 50 µg/cm2 (BAW (Spodoptera exigua)) [%]	mortality at 200 ppm (GPA (Myzus persicae); foliar) [%]	mortality at 50 µg/cm2 (CEW (Helicoverpa zea); [1]) [%]	mortality at 50 µg/cm2 (BAW (Spodoptera exigua); [1]) [%]	mortality at 200 ppm (GPA (Myzus persicae); [2]) [%]
Cc1cccc(C)c1/N=C(/N/N=C/c1ccc(-c2ncn(-c3ccc(OC(F)(F)F)cc3)n2)cc1)SCC#C[Si](C)(C)C [Compound 9C]	50 to 100	50 to 100	0			
Cc1cccc(C)c1/N=C(/N/N=C/c1ccc(-c2ncn(-c3ccc(OC(F)(F)F)cc3)n2)cc1)SCOC(=O)CNC(=O)OCc1ccccc1 [Compound 23C]	50 to 100	50 to 100	0			
COc1cc(C)c(/N=C(/N/N=C/c2ccc(-c3ncn(-c4ccc(OC(F)(F)F)cc4)n3)cc2)SCOC(=O)CNC(=O)OCc2ccccc2)c(C)c1 [Compound 28C]	50 to 100	50 to 100	0 to 80			
COc1cc(C)c(/N=C(\N/N=C/c2ccc(-c3ncn(-c4ccc(C(F)(F)F)cc4)n3)cc2)SCOC(=O)CNC(=O)OCc2ccccc2)c(C)c1 [Compound 45C]	50 to 100	50 to 100				
COc1cc(C)c(/N=C(/N/N=C/c2ccc(-c3ncn(-c4ccc(OC(F)(F)F)cc4)n3)cc2)SCC(=O)N2CCNCC2)c(C)c1 [Compound 65C]				50 to 100	50 to 100	0 to 80
CC(C)c1ccccc1N1C(=O)CS/C1=N\N=C\c1ccc(-c2ncn(-c3ccc(OC(F)(F)F)cc3)n2)cc1 [Compound 73C]				50 to 100	50 to 100	0 to 80
C/C(=N\N=C1/SCC(=O)N1c1ccccc1C(C)C)c1ccc(-c2ncn(-c3ccc(OC(F)(F)F)cc3)n2)cc1 [Compound 122C]				50 to 100	50 to 100	
FC(F)Oc1ccccc1N1CCCS/C1=N\N=C\c1ccc(-c2ncn(-c3ccc(OC(F)(F)F)cc3)n2)cc1 [Compound 200C]				50 to 100	50 to 100	
Cc1cccc(Cl)c1N1/C(=N/N=C/c2ccc(-c3ncn(-c4ccc(OC(F)(F)F)cc4)n3)cc2)SCCC1C (stereo not shown) [Compound 227C]				50 to 100	50 to 100	
CC1CCS/C(=N\N=C\c2ccc(-c3ncn(-c4ccc(OC(F)(F)F)cc4)n3)cc2)N1c1ccccc1OC(C)(F)F (stereo not shown) [Compound 229C]				50 to 100	50 to 100	
